Legend:
[1] = tested on: barrier marker genes in differentiated normal human epidermal keratinocytes (NHEK); experiment: qPCR mRNA expression of barrier marker genes in differentiated NHEK; format: cell-based; conditions: qPCR data from two donors
Protocol: Treatment time—4 h. […] Data from two independent experiments. Exemplary barrier marker genes examined as follows: Epidermal growth factor (EGF); fibroblast growth factor 2 (FGF2); platelet derived growth factor (PDGF); Carnitine Palmitoyltransferase 2 (CPT2); Transglutaminase 4 (TGM4); Peroxisome Proliferator Activated Receptor Delta (PPARD); TNF Receptor Superfamily Member 10d (TNFRSF10D).
To test the effect of amino acid treatment on epithelial skin barrier, a cellular model of differentiated normal human epidermal keratinocytes (NHEK) was utilized. Commercially available NHEK (ATCC), derived from three diverse healthy donors, were used. Based on a multivariate analysis, three amino acids for the treatment: Ser, Gln and Gly were selected.
Using gene arrays, comparative analyses of two datasets were performed in three diverse donors focusing on consistently differentially [filter criterion of fold change 1.5 (positive or negative) and p-value <0.05)] expressed genes following treatment with various amino acids and combinations thereof. qPCR was used to assess the mRNA expression results. The qPCR results confirmed the array results pertaining to differential expression, thereby validating the panel of genes.
mRNA is extracted, converted to cDNA, and analyzed by qPCR method using custom TaqMan array 384-well plates (Thermo Fisher Scientific) containing 34 of the above-mentioned genes. Four control housekeeping genes are included to normalize the mRNA expression: GAPDH, POLR2A, YWHAZ and PGK1. The array plate will contain 38 genes in total and 10 samples can be analyzed in one run of qPCR.

[2] = Preliminary screens of amino acids
Protocol: In addition to the amino acid combinations described above, several other combinations are tested that include, e.g., Trp and/or Arg to determine if inclusion of these amino acids confers additional dermatological benefits. […] At the outset, the following combinations of amino acids are tested: Ala, Gln, Gly, Ser (combo #1); Ala, Gln, Gly, Ser, Val, Ile (combo #2); Ala, Gln, Gly, Ser, Val; Ala, Gln, Gly, Ser, Ile; Ala, Gln, Gly, Ser, Ile, Val, Trp; Ala, Gln, Gly, Ser, Ile, Val, Arg; and Ala, Gln, Gly, Ser, Ile, Val, Trp, Arg.

[3] = tested on: HAS3 mRNA in human-derived epidermal keratinocytes (NHEK); experiment: HAS3 mRNA fold change (qPCR) in keratinocytes; format: cell-based; conditions: 4GAA 4 mM, ROL 10 μM
[4] = tested on: HAS2 mRNA in human-derived epidermal keratinocytes (NHEK); experiment: HAS2 mRNA fold change (qPCR) in keratinocytes; format: cell-based; conditions: 4GAA 4 mM, ROL 10 μM
[5] = Donor O and Donor R keratinocytes, 24 h in complete medium
[6] = NHEK Donors E, G, O, R, T, 4 h in amino acid-deprived medium

Structure (SMILES) | effectiveness in comparative analysis of qPCR data with scoring system [1] | further results
NCC(=O)O [Gly, glycine] | most effective | 
N[C@@H](Cc1ccc(O)cc1)C(=O)O [Tyr, tyrosine] | least effective | 
N=C(N)NCCC[C@H](N)C(=O)O [Arg, arginine] |  | effect in preliminary screens [2]: positive effects
O=C(O)[C@@H]1CCCN1 [Pro, proline] | least effective | 
CC1=C(/C=C/C(C)=C/C=C/C(C)=C/CO)C(C)(C)CCC1 [ROL, retinol] |  | HAS3 mRNA gene expression [3, 5]: upregulated; HAS3 gene expression [3, 6]: upregulated; HAS2 mRNA gene expression [4, 5]: upregulated; HAS2 gene expression [4, 6]: upregulated
N[C@@H](CS)C(=O)O [Cys, cysteine] | least effective | 
N[C@@H](Cc1c[nH]c2ccccc12)C(=O)O [Trp, tryptophan] |  | effect in preliminary screens [2]: positive effects
N[C@@H](CC(=O)O)C(=O)O [Asp, aspartic acid] | least effective | 
C[C@@H](O)[C@H](N)C(=O)O [Thr, threonine] | least effective | 
NC(=O)CC[C@H](N)C(=O)O [Gln, glutamine] | most effective | 
N[C@@H](CO)C(=O)O [Ser, serine] | most effective | 
C[C@H](N)C(=O)O [Ala, alanine] | most effective | 

Source: patent US12274729B2, “Formulations and methods for skin care or hyaluronic acid synthesis” (AMILYFE, LLC, priority 2022, dated 2025)
